Patent US7192906B2, “Substituted pyrazole derivatives, production process thereof, and herbicide compositions containing the derivatives” (SDS Biotech K.K., priority 2001, dated 2007)

What was measured:
Assay type in all cases: in vivo
[1] = test system: Chenopodium album; assay: Test Example 1 upland field foliage treatment; settings: Table 4, upland field foliage treatment, index 0-5
Method in brief: (§1)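 Seeds sown in upland soil in pots and covered with about 1 cm soil; on day 14 after sowing, diluted wettable powder applied uniformly to leaves at 1 kg active ingredient per hectare. Weed control or crop phytotoxicity scored visually 21 days after application on a 0–5 scale (5 = ≥90%, 0 = <10%).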

[2] = test system: Digitaria adscendens; assay: Test Example 1 upland field foliage treatment; settings: Table 4, upland field foliage treatment, index 0-5
Method in brief: as §1

[3] = test system: Setaria viridis; assay: Test Example 1 upland field foliage treatment; settings: Table 4, upland field foliage treatment, index 0-5
Method in brief: as §1

[4] = test system: Stellaria media; assay: Test Example 1 upland field foliage treatment; settings: Table 4, upland field foliage treatment, index 0-5
Method in brief: as §1

[5] = test system: soybean (Glycine max); assay: Test Example 1 upland field foliage treatment, crop phytotoxicity; settings: Table 4, upland field foliage treatment, index 0-5
Method in brief: as §1

[6] = test system: wheat (Triticum aestivum); assay: as above; settings: Table 4, upland field foliage treatment, index 0-5
Method in brief: as §1

[7] = test system: Chenopodium album; assay: Test Example 2 upland soil treatment; settings: Table 5, upland soil treatment, index 0-5
Method in brief: (§2)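 Score 0–5 read at day 21 (5 = ≥90% effect or phytotoxicity, 0 = <10%). Wettable powder diluted in water to 1 kg a.i./ha, applied uniformly to upland soil one day after sowing; seeds covered with ~1 cm soil.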

[8] = test system: Digitaria adscendens; assay: Test Example 2 upland soil treatment; settings: Table 5, upland soil treatment, index 0-5
Method in brief: as §2

[9] = test system: Setaria viridis; assay: Test Example 2 upland soil treatment; settings: Table 5, upland soil treatment, index 0-5
Method in brief: as §2

[10] = test system: Stellaria media; assay: Test Example 2 upland soil treatment; settings: Table 5, upland soil treatment, index 0-5
Method in brief: as §2

[11] = test system: soybean (Glycine max); assay: Test Example 2 upland soil treatment, crop phytotoxicity; settings: Table 5, upland soil treatment, index 0-5
Method in brief: as §2

[12] = test system: wheat (Triticum aestivum); assay: as above; settings: Table 5, upland soil treatment, index 0-5
Method in brief: as §2

[13] = test system: Ammannia multiflora; assay: Test Example 3 paddy field treatment; settings: paddy field treatment, wettable powder, active ingredient 1 kg per hectare, 21st day after the dropping, index 0-5
Method in brief: (§3)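 Weed seeds sown in puddled paddy soil under 4 cm water, with two-leaf Koshihikari rice transplanted; 10 days later a wettable powder was applied to the water surface at 1 kg active ingredient/ha. Scored 21 days after application on a 0–5 scale (0 = <10%, 5 = ≥90% herbicidal effect or phytotoxicity).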

[14] = test system: Echinochloa crusgalli; assay: Test Example 3 paddy field treatment; settings: paddy field treatment, wettable powder, active ingredient 1 kg per hectare, 21st day after the dropping, index 0-5
Method in brief: as §3

[15] = test system: Monochoria vaginalis; assay: Test Example 3 paddy field treatment; settings: paddy field treatment, wettable powder, active ingredient 1 kg per hectare, 21st day after the dropping, index 0-5
Method in brief: as §3

[16] = test system: Scirpus juncoides; assay: Test Example 3 paddy field treatment; settings: paddy field treatment, wettable powder, active ingredient 1 kg per hectare, 21st day after the dropping, index 0-5
Method in brief: as §3

[17] = test system: Rice (Oryza sativa); assay: Test Example 3 paddy field treatment, crop phytotoxicity; settings: paddy field treatment, transplanted rice Koshihikari, wettable powder, active ingredient 1 kg per hectare, 21st day after the dropping, index 0-5
Method in brief: as §3

`CON=C(Cn1cc(C)c(-c2ccccc2)n1)C(=O)NCC#N` [Compound 33] was tested, and the “Herbicidal activity CA: Chenopodium album” value [1] was 4 (herbicidal effect of not less than 70% and less than 90%, or phytotoxicity of 70% or more and less than 90%), the “Herbicidal activity DA: Digitaria adscendens” value [2] was 5 (herbicidal effect of not less than 90%, or phytotoxicity of 90% or more) and the “Herbicidal activity SV: Setaria viridis” value [3] was 4 (herbicidal effect of not less than 70% and less than 90%, or phytotoxicity of 70% or more and less than 90%). For the same compound, the “Herbicidal activity SM: Stellaria media” value [4] was 4 (herbicidal effect of not less than 70% and less than 90%, or phytotoxicity of 70% or more and less than 90%), the “Herbicidal activity (phytotoxicity) GM: Soybean (Glycine max)” value [5] was 0 (herbicidal effect of not less than 0% and less than 10%, or phytotoxicity of 0% or more and less than 10%) and the “Herbicidal activity (phytotoxicity) TA: Wheat (Triticum aestivum)” value [6] was 0 (herbicidal effect of not less than 0% and less than 10%, or phytotoxicity of 0% or more and less than 10%). The “Herbicidal activity CA: Chenopodium album” value [7] was 5 (herbicidal effect of not less than 90%, or phytotoxicity of 90% or more), the “Herbicidal activity DA: Digitaria adscendens” value [8] was 5 (herbicidal effect of not less than 90%, or phytotoxicity of 90% or more) and the “Herbicidal activity SV: Setaria viridis” value [9] was 4 (herbicidal effect of not less than 70% and less than 90%, or phytotoxicity of 70% or more and less than 90%). For the same compound, the “Herbicidal activity SM: Stellaria media” value [10] was 5 (herbicidal effect of not less than 90%, or phytotoxicity of 90% or more), the “Herbicidal activity (phytotoxicity) GM: Soybean (Glycine max)” value [11] was 0 (herbicidal effect of not less than 0% and less than 10%, or phytotoxicity of 0% or more and less than 10%) and the “Herbicidal activity (phytotoxicity) TA: Wheat (Triticum aestivum)” value [12] was 0 (herbicidal effect of not less than 0% and less than 10%, or phytotoxicity of 0% or more and less than 10%). For the same compound, the “Herbicidal activity AM” value [13] was 5 (herbicidal effect of not less than 90%, or phytotoxicity of 90% or more), the “Herbicidal activity EC” value [14] was 5 (herbicidal effect of not less than 90%, or phytotoxicity of 90% or more) and the “Herbicidal activity MV” value [15] was 5 (herbicidal effect of not less than 90%, or phytotoxicity of 90% or more). For the same compound, the “Herbicidal activity SJ” value [16] was 4 (herbicidal effect of not less than 70% and less than 90%, or phytotoxicity of 70% or more and less than 90%) and the “Herbicidal activity OS (phytotoxicity to rice)” value [17] was 0 (herbicidal effect of not less than 0% and less than 10%, or phytotoxicity of 0% or more and less than 10%).
